Laboratory results reported in patent US11111217B2, “2-arylbenzimidazoles as Ppargc1a activators for treating neurodegenerative diseases” (The Board of Trustees of the Leland Stanford Junior …, priority 2018, dated 2021).
Read-outs that look alike come from different tables or passages of the source.

Columns and labels:
[1] = Microsome stability assay, mouse liver microsomes; assay type: in vitro ADME; conditions: pH 7.4, 1 μM test compound, NADPH 1 mM, 37° C., 0-40 mins, read-out: MLM t1/2
Experimental: (§1) Microsome Stability Assay Protocol
(§2) Human liver microsomes (Corning #452117 lot 38291) or Mouse liver microsomes (Corning #452701, lot #6328004) were separately combined at a final concentration of […] with KxPO4 pH 7.4 (100 mM), MgCl2 (10 mM), and test compound (1 μM) and pre-incubated (10 min, 37° C.). Next, NADPH (1 mM) was added to begin reactions (total volume 100 μL). At various time points (0, 10, 20, and 40 mins), reactions were quenched with Clem stop solution (100 μL, 625 ng/mL) (Cyprotex) in Acetonitrile. Samples were centrifuged at 4000 g for 20 mins, diluted (75 μL into 75 μL 0.1% formic acid in water), and analyzed by LC-MS/MS.

[2] = system: TNF-α production by BV2 cells or PBMC; assay: Cellular assay to measure TNF-α inhibition (LPS-stimulated, ELISA); assay type: cell-based, murine (BV2) or human (PBMC); conditions: BV2 cells or PBMC (not specified), LPS 100 ng/ml over 24 hours, relative to DMSO vehicle; compound concentration not stated
From the text: Oxidative metabolism exerts an anti-inflammatory effect on myeloid cell phenotype (O'Neill L A, Front Immunol. 2014) and Ppargc1a can promote this energy metabolic pathway (Spiegelman BM, Novartis Found Symp. 2007). Thus, pharmacological activation of Ppargc1a would be expected to inhibit the inflammatory response of myeloid cells. This phenomenon can be measured in cultures by a TNF-α inhibition assay.
Cellular Assay Protocol to Measure TNF-α Inhibition
The murine myeloid cell line BV2 or human peripheral blood mononuclear cells (PBMC) are cultured in RPMI 1640 media (Cat #11875119, Gibco) supplemented with 10% fetal bovine serum and 1% L-glutamine 1% penicillin. These cells are then stimulated with 100 ng/ml of lipopolysaccharide (LPS, O111:B34, Cat # L2630, Sigma) over 24 hours. LPS stimulation results in the secretion of the inflammatory cytokine TNF-α by BV2 cells or PBMC, which can be quantified by ELISA in culture supernatant samples per manufacturer's protocol (Cat #558273 for BV2 and Cat #558299 for PBMC, BD Biosciences). To determine whether exampl compounds 1-78 inhibit TNF-α production by BV2 cells or PBMC, the cells were cultured in the presence of the compounds at different concentrations, and fold reduction in TNF-α production relative to TNF-α production by the same cells cultured in the presence of dimethylsulfoxide (as vehicle control) was determined.

[3] = Microsome stability assay, human liver microsomes; assay type: in vitro ADME; conditions: pH 7.4, 1 μM test compound, NADPH 1 mM, 37° C., 0-40 mins, read-out: HLM t1/2
Experimental: as §1, §2

[4] = in vitro; conditions: human, Caco-2, pH 7.4
Experimental: Caco-2 Permeability Assay Protocol
(§3) Caco-2 cells were maintained in DMEM in an atmosphere of 5% CO2. For transport experiments 5×10^5 cells/well of were seeded on polycarbonate filter inserts and allowed to grow and differentiate for 21±4 days before the cell monolayers were used for experiments. Apparent permeability coefficients were determined for A→B and B→A directions with and without the presence of elacridar as a transporter inhibitor. Up to three test items and reference compounds were dissolved in Hank's balanced salt solution at pH 7.4 to yield a final concentration of 10 μM.
(§4) The assays were performed in HBSS containing 25 mM HEPES (pH 7.4) at 37° C. Prior to the study, the monolayers were washed in prewarmed HBSS. At the start of the experiments prewarmed HBSS containing the test items was added to the donor side of the monolayer and HBSS without test items was added to the receiver side. Aliquots of the receiver side were taken over the 2 h incubation period; aliquots of the donor side were taken at 0 hand 2 h. Aliquots were diluted with an equal volume of methanol/water with 0.1% formic acid containing the internal standard. The mixture was analyzed by LC-MS/MS. The apparent permeability coefficients (Papp) were calculated using the formula: Papp=(dCrec/dt)/(A×C0,donor)]×106 with dCrev/dt being the change in concentration in the receiver compartment with time, C0,donor the concentration in the donor compartment at time 0, and A the area of the compartment with the cells.

[5] = system: Caco-2 cells; conditions: human, Caco-2, 2 h, 10 μM, pH 7.4
Experimental: Caco-2 Permeability Assay Protocol
as §3, §4

[6] = Pharmacokinetic study (mouse), levels of API after prodrug dosing; assay type: in vivo; conditions: mice, 10 mg/kg p.o., 1 h, 2 h, 4 h; for brain levels of API (example 1 compound): brain at 0.5 h, LCMS (FIG. 2); for liver levels of API (example 1 compound): liver at 0.5 h, LCMS (FIG. 3); for plasma levels of API (example 1 compound): plasma at 0.5 h, LCMS (FIG. 1)
Experimental: Pharmacokinetic studies (mouse) were performed on the example 1, 6-P, 8-P, and 11-P compounds of the present invention. The example 1, 6-P, 8-P, and 11-P compounds were dosed in mice at 10 mg/kg p.o. (n=2). Plasma, brain, and liver were harvested at 0.5 h, 1 h, 2 h, and 4 h. The samples were analyzed by LCMS to determine levels of the example 1 compound, i.e., the active pharmaceutical ingredient (API) for prodrug examples 6-P, 8-P, and 11-P.

[7] = Caco-2 permeability assay; conditions: human, Caco-2, pH 7.4, with elacridar (concentration not stated)
[8] = system: Caco-2 cells; assay: Caco-2 permeability assay; conditions: 10 μM, HBSS pH 7.4, 37° C., 2 h; for Caco2 A → B: without elacridar
Experimental: Caco-2 Permeability Assay Protocol
as §3, §4

SMILES | half-life at 1 μM [1] | TNF α Inhibition [2] | half-life at 1 μM [3] | Papp A→B at 2 h, 10 μM [4] | Caco2 B → A [5] | brain levels of API (example 1 compound) [6] | liver levels of API (example 1 compound) [6] | plasma levels of API (example 1 compound) [6] | Papp A→B at 2 h, 10 μM [7] | Caco2 B → A [8] | Caco2 A → B w/ elacridar ([8]; with elacridar as transporter inhibitor) | Caco2 A → B [8]
CC(C)(C)c1ccc(-c2nc3ccccc3[nH]2)cc1 [Example 1, 2-(4-(tert-Butyl)phenyl)-1H-benzo[d]imidazole] | 16.7 min | A (A = >80% inh.) | 14 min | 0.659 ×10⁻⁶ cm/s | 31.5 nm/s | – | – | – | – | – | – | –
CC(C)(C)c1ccc(-c2nc3ccccc3n2COC(=O)CCC(=O)O)cc1 [Example 6-P, 4-((2-(4-(tert-Butyl)phenyl)-1H-benzo[d]imidazol-1-yl)methoxy)-4-oxobutanoic acid] | – | – | – | – | – | measurable amounts | measurable amounts | measurable amounts | – | – | – | –
CC(C)(C)c1ccc(-c2nc3ccccc3n2COC(=O)c2ccc(CN)cc2)cc1.Cl [Example 8-P, (4-(((2-(4-(tert-butyl)phenyl)-1H-benzo[d]imidazol-1-yl)methoxy)carbonyl)-phenyl)methylammonium hydrochloride] | – | – | – | – | – | measurable amounts | measurable amounts | measurable amounts | – | – | – | –
CC(C)(C)c1ccc(-c2nc3ccccc3n2COP(=O)([O-])[O-])cc1.[Na+].[Na+] [Example 11-P, Disodium ((2-(4-(tert-butyl)phenyl)-1H-benzo[d]imidazol-1-yl)methyl) phosphate] | – | – | – | – | – | measurable amounts | measurable amounts | measurable amounts | – | – | – | –
CC(C)(C)c1ccc(-c2nc3c(F)c(F)c(F)cc3[nH]2)cc1 [Example 64, 2-(4-tert-Butylphenyl)-4,5,6-trifluoro-1H-benzo[d]imidazole] | 83.1 min | A (A = >80% inh.) | 112 min | – | – | – | – | – | 0.00126 ×10⁻⁶ cm/s | 2.54 nm/s | 0.792, nm/s | –
Nc1ccc(-c2nc3ccccc3[nH]2)cc1 [Example 76, 2-(4-Aminophenyl)-1H-benzo[d]imidazole] | 8.3 min | A (A = >80% inh.) | 25.4 min | – | – | – | – | – | 3.11 ×10⁻⁶ cm/s | – | – | 47.8 nm/s
CC(C)(C)c1cccc(-c2nc3c(F)cc(F)cc3[nH]2)c1 [Example 77, 2-(3-tert-Butylphenyl)-4,6-difluoro-1H-benzo[d]imidazole] | 10.5 min | A (A = >80% inh.) | 31.3 min | – | – | – | – | – | 0.0634 ×10⁻⁶ cm/s | – | – | 13.3 nm/s
